# US20240293395A1, “NALTREXONE FOR IMPROVING THE […] OF 5-HT RECEPTOR SUBTYPE 2A, 2B or 2C AGONISTS” (LDN Pharma Limited, priority 2021, published 2024)
# Tests used:
# [1] = system: mRNA for one or more of 5-HT2A, 5-HT2B or 5-HT2C receptor proteins; experiment: Microarray gene expression in CD3+ lymphocytes, summary statement over 5-HT2 receptors; assay type: cell-based, human; conditions: both higher dose (10 uM) and low dose (10 nM) naltrexone, 4 h
# Method: (§1) CD3+ lymphocytes were isolated from the blood of haematologically normal volunteers. Cells placed into 25 cm3 flasks at a concentration of 1×10^6/ml, and left to equilibrate in an incubator with a humidified atmosphere and 5% CO2 in air at 37° C. […] RNA extraction was performed using Trizol according to standard procedures, before being processed for microarray analysis according to the standard methodologies. Briefly, equal amounts of biotinylated cRNA was hybridised to the Illumina human HT12-v3 arrays for 18 h and subsequently processed according to manufacturer's instructions before scanning on an Illumina BeadArray Reader. The image data were processed using default values in GenomeStudio v2009.1 with imputation of missing data, before loading onto GeneSpring v9.0 for data normalisation and filtering. Data analyses were performed using Excel software, and the ratio of gene expression signals in treated vs. untreated calculated.
# [2] = system: 5-HT receptor 2B (HTR2B), mRNA; experiment: Microarray gene expression in CD3+ lymphocytes, HTR2B probe ILMN_1735764; assay type: cell-based, human; conditions: 4 h, Illumina HT12-v3 array
# Method: as §1
compound,measurement,setting,value
"O=C1CC[C@@]2(O)[C@H]3Cc4ccc(O)c5c4[C@@]2(CCN3CC2CC2)[C@H]1O5 [NTX, morphinan-6-one, 17-(cyclopropylmethyl)-4,5-epoxy-3,14-dihydroxy-(5α)]","levels of mRNA for one or more of 5-HT2A, 5-HT2B or 5-HT2C receptor proteins",[1],selectively increase the levels of mRNA
same,"gene expression signal, LDN",[2]; low dose naltrexone 10 nM,147.45
same,"gene expression signal, NTX",[2]; naltrexone 10 uM,177.95
